# Data from patent US11414387B2, “Oxoacridinyl acetic acid derivatives and methods of use” (Stingthera, Inc., priority 2017, dated 2022).
# Key:
# hSTING-WT = hSTING-WT (Homo sapiens (Human), UniProt Q86WV6, H232R); test: Radiometric filtration binding competition assay, hSTING-WT
# Description: (§1) A radiometric filtration binding competition assay was performed to quantify the binding affinity of compounds of the present application for the human or mouse STING protein, or associated HAQ human isoform. […] The resulting dose response was fit by non-linear regression to determine an IC50 value, from which a Ki value for each compound was extrapolated.
# (§2) The resulting complexes were then filtered, dried, and scintillation fluid was added and the remaining radio signal was measured to determine the degree of compound ligand inhibition. This assay format was optimized for both the WT and HAQ isoforms of the human protein and the mouse orthologue protein.
# (§3) Probe Concentration: Minimum concentration that achieved max assay window • g. Assay Format: Scintillation Proximity Bead or Filtration Binding Plate • h. […] Assay incubation times for successive incubation steps
# (§4) WT-hSWAT: WT_FBA_HIS-SUMO-hSWAT IC50 (μM) (“WT”=Wild-type); HAQ-hSWAT: HAQ_FBA_HIS-SUMO-hSWAT IC50 (μM) (“HAQ”=human HAQ allele of STING protein); and WT-mSWAT: MOUSE_FBA_HIS-SUMO-mnSWAT IC50 (μM) which is the mouse isoform of STING protein.
# hSTING-R232 = hSTING-R232 (Homo sapiens (Human), UniProt Q86WV6, H232R); test: STING differential scanning fluorimetry (DSF) assay, WT human STING; settings: WT (R232) human STING aa140-379, net shift in melting temperature
# Sequence of hSTING-R232 (Q86WV6 140-379 H232R): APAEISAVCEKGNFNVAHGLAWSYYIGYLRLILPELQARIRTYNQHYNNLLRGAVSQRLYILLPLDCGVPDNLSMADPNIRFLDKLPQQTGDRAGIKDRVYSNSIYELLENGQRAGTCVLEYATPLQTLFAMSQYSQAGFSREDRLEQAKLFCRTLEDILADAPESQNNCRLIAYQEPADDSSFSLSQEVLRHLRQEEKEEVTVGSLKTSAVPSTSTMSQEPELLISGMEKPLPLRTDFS
# Description: (§5) A STING DSF assay was performed to determine protein thermostability shift in response to small molecule ligand binding. A STING thermostability shift assay based on differential scanning fluorimetry was used to measure (1) the net shift in melting temperature (ΔTm)between the apo and ligand-bound states of the STING protein and (2) the concentration of the thermal denaturation transition (EC50) as a surrogate measure of binding affinity (K). […] Protein in assay buffer was transferred to a 384 well plate and incubated with the hydrophobic fluorescent dye SYBR Orange. A temperature ramp was applied to the plate and the resulting dye fluorescence was plotted as a function of temperature. The first derivative of this function (dF/dT) was then used to extrapolate the melting temperature of the protein at various concentrations of compound and determine the thermal denaturation profile of a protein/compound complex.
# (§6) • 1. Protein construct (affinity tag removal vs SUMO-fusion construct) • 2. Protein concentration • 3. Dye concentration • 4. Buffer • 5. Thermal ramp velocity • 6. DMSO tolerance • 7. Compound titration parameters • 8. […] 5 μM purified Target STING Protein • 3. 8 μM Sypro Orange Dye • 4. Buffer: 100 mM NaCl, 30 mM HEPES, pH 7.5 • 5. Thermal Ramp: 0.5° C./min • 6. <1% DMSO • 7. 11 point, 2 fold dilution, duplicate, 300 μM high concentrations • 8.
# mSTING = mSTING (Mus musculus, UniProt Q3TBT3); test: Radiometric filtration binding competition assay, mSTING
# Description: as §1, §2, §3, §4
# mSTING-R232 = mSTING-R232 (Mus musculus, UniProt Q3TBT3); test: STING differential scanning fluorimetry (DSF) assay, mouse STING; settings: net shift in melting temperature
# Description: as §5, §6
# STING protein = STING protein (Homo sapiens (Human), UniProt Q86WV6, H232R); test: Cell based reporter assay of IRF activation (IRF-luciferase), THP1-dual-KI R232; settings: read-out: THP1-dual-KI R232_IRF(Luciferase)_Activity Maximum measured (%)
# Sequence of STING protein (Q86WV6 whole entry H232R): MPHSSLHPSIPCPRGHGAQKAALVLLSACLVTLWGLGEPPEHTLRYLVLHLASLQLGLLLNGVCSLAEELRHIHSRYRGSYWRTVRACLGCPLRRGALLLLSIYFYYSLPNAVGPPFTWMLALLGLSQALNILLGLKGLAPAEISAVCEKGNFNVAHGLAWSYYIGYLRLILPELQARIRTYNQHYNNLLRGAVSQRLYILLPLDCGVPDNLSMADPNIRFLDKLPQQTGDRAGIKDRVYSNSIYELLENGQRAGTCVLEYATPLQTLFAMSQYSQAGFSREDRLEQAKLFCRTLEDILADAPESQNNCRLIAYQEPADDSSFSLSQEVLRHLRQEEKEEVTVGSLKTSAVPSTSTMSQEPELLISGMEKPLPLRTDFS
# Sequence of hSTING-WT (Q86WV6 140-379 H232R): as the sequence (Q86WV6 140-379 H232R) above
Compound,IC50 (hSTING-WT) [µM],WT_DSF_hSWAT Tm Shift (° C.) (hSTING-R232),IC50 (mSTING) [µM],MOUSE DSF_6xHIS-SUMO Tm Shift (° C.) (mSTING-R232),Emax (STING protein) [%]
O=C(O)Cn1c2ccccc2c(=O)c2ccc(F)c(Br)c21 [Compound 173],> 300,B (“B” = 0-2° C.),,C (“C” = 5-15° C.),
COc1c(Cl)ccc2c(=O)c3ccccc3n(CC(=O)O)c12 [Compound 178],> 300,"C (“C” = 2-7° C,)",> 300,C (“C” = 5-15° C.),
Cc1ccc2c(=O)c3ccc(Cl)cc3n([C@H](C)C(=O)O)c2c1 [Compound 179],100 to 300,A (“A” < 0° C.),,B (“B” = 0-5° C.),
CC(C)c1ccc2c(=O)c3ccc(Cl)c(Cl)c3n(C)c2c1 [Compound 174],> 300,B (“B” = 0-2° C.),,B (“B” = 0-5° C.),< 5
Cc1cccc2c(=O)c3cccc(C)c3n(CC(=O)O)c12 [Compound 132],100 to 300,A (“A” < 0° C.),,A (“A” < 0° C.),< 5
COc1ccc2c(c1C)c(=O)c1ccc(Cl)c(Cl)c1n2CC(=O)O [Compound 133],100 to 300,A (“A” < 0° C.),,B (“B” = 0-5° C.),
CC(C(=O)O)n1c2ccccc2c(=O)c2ccc(Cl)c(Cl)c21 (centres unmarked) [Compound 141],> 300,,,A (“A” < 0° C.),
O=C(O)Cn1c2cc(C(F)(F)F)ccc2c(=O)c2ccc(Cl)c(Cl)c21 [Compound 165],> 300,B (“B” = 0-2° C.),,C (“C” = 5-15° C.),
Cc1ccc2c(=O)c3ccc(Cl)cc3n(C(C)C(=O)O)c2c1 (centres unmarked) [Compound 171],> 300,A (“A” < 0° C.),,B (“B” = 0-5° C.),< 5
Cc1cc2c(cc1F)c(=O)c1ccc(Cl)c(Cl)c1n2CC(=O)O [Compound 135],100 to 300,A (“A” < 0° C.),,B (“B” = 0-5° C.),< 5
O=C(O)Cn1c2cc(-c3cccc(Cl)c3)ccc2c(=O)c2ccc(Cl)c(Cl)c21 [Compound 155],100 to 300,"C (“C” = 2-7° C,)",,D (“D” > 15° C.),< 5
O=C(O)Cn1c2cc(N3CCc4ccccc43)ccc2c(=O)c2ccc(Cl)c(Cl)c21 [Compound 144],100 to 300,"C (“C” = 2-7° C,)",,C (“C” = 5-15° C.),< 5
O=C(O)Cn1c2ccccc2c(=O)c2cccc(Br)c21 [Compound 130],> 300,B (“B” = 0-2° C.),,C (“C” = 5-15° C.),
COc1cccc2c(=O)c3ccccc3n(CC(=O)O)c12 [Compound 131],> 300,A (“A” < 0° C.),,A (“A” < 0° C.),
NC(=O)Cn1c2ccccc2c(=O)c2ccc(Cl)c(Cl)c21 [Compound 146],,,,B (“B” = 0-5° C.),
O=C(O)Cn1c2cc(NCCN3CCc4ccccc43)ccc2c(=O)c2ccc(Cl)c(Cl)c21 [Compound 150],100 to 300,"C (“C” = 2-7° C,)",,C (“C” = 5-15° C.),5 to 25
CC(C)c1ccc2c(=O)c3ccc(C#N)c(Cl)c3n(CC(=O)O)c2c1 [Compound 145],100 to 300,A (“A” < 0° C.),,A (“A” < 0° C.),< 5
Cc1ccc(-c2ccc3c(=O)c4ccc(Cl)c(Cl)c4n(CC(=O)O)c3c2)cc1 [Compound 154],100 to 300,"C (“C” = 2-7° C,)",,D (“D” > 15° C.),5 to 25
O=C(O)Cn1c2cc(NC3CCNCC3)ccc2c(=O)c2ccc(Cl)c(Cl)c21 [Compound 143],> 300,B (“B” = 0-2° C.),,B (“B” = 0-5° C.),

# The next lines start with the values.
IC50 (hSTING-WT) [µM],WT_DSF_hSWAT Tm Shift (° C.) (hSTING-R232),IC50 (mSTING) [µM],MOUSE DSF_6xHIS-SUMO Tm Shift (° C.) (mSTING-R232),Emax (STING protein) [%],Compound
20 to 100,D (“D” > 7° C.),< 20,D (“D” > 15° C.),25 to 50,COc1c(Cl)ccc2c(=O)c3ccc(Nc4ccc(Cl)cc4)cc3n(CC(=O)O)c12 [Compound 251]
100 to 300,A (“A” < 0° C.),,C (“C” = 5-15° C.),< 5,O=C(O)Cn1c2cc(-c3cccc(Cl)n3)ccc2c(=O)c2ccc(Cl)c(Cl)c21 [Compound 162]
100 to 300,"C (“C” = 2-7° C,)",,C (“C” = 5-15° C.),5 to 25,O=C(O)Cn1c2cc(-c3ccncc3)ccc2c(=O)c2ccc(Cl)c(Cl)c21 [Compound 189]
20 to 100,"C (“C” = 2-7° C,)",,D (“D” > 15° C.),5 to 25,Cc1ccc(-c2ccc3c(=O)c4ccc(Cl)c(Cl)c4n(CC(=O)O)c3c2)cc1F [Compound 163]
20 to 100,"C (“C” = 2-7° C,)",,C (“C” = 5-15° C.),> 50,CC(C)(C)CNc1ccc2c(=O)c3ccc(Cl)c(Cl)c3n(CC(=O)O)c2c1 [Compound 138]
100 to 300,"C (“C” = 2-7° C,)",,C (“C” = 5-15° C.),< 5,O=C(O)Cn1c2cc(NC3CCOCC3)ccc2c(=O)c2ccc(Cl)c(Cl)c21 [Compound 142]
20 to 100,A (“A” < 0° C.),,B (“B” = 0-5° C.),,Cc1ccc2c(=O)c3ccc(Cl)cc3n([C@@H](C)C(=O)O)c2c1 [Compound 180]
20 to 100,D (“D” > 7° C.),,D (“D” > 15° C.),> 50,O=C(O)Cn1c2cc(NC3CCC3)ccc2c(=O)c2ccc(Cl)c(Br)c21 [Compound 175]
20 to 100,"C (“C” = 2-7° C,)",,D (“D” > 15° C.),5 to 25,O=C(O)Cn1c2cc(-c3ccc(F)cc3)ccc2c(=O)c2ccc(Cl)c(Cl)c21 [Compound 153]
20 to 100,"C (“C” = 2-7° C,)",,C (“C” = 5-15° C.),25 to 50,CC(C)(C)CNc1ccc2c(=O)c3ccc(Cl)c(Br)c3n(CC(=O)O)c2c1 [Compound 148]
20 to 100,B (“B” = 0-2° C.),,C (“C” = 5-15° C.),25 to 50,CC(C)c1ccc2c(=O)c3ccc(Br)c(Cl)c3n(CC(=O)O)c2c1 [Compound 170]
20 to 100,B (“B” = 0-2° C.),,B (“B” = 0-5° C.),< 5,CC(C)c1ccc(-c2ccc3c(c2)c(=O)c2ccc(Cl)c(Br)c2n3CC(=O)O)cc1 [Compound 109]
20 to 100,D (“D” > 7° C.),< 20,D (“D” > 15° C.),,O=C(O)Cn1c2cc(Nc3ccccc3)ccc2c(=O)c2ccc(Cl)c(Br)c21 [Compound 206]
< 20,"C (“C” = 2-7° C,)",,D (“D” > 15° C.),< 5,CC1(C)CCCC(c2ccc3c(=O)c4ccc(Cl)c(Cl)c4n(CC(=O)O)c3c2)C1 (centres unmarked) [Compound 158]
20 to 100,"C (“C” = 2-7° C,)",,D (“D” > 15° C.),5 to 25,CC1CCC(Nc2ccc3c(=O)c4ccc(Cl)c(Cl)c4n(CC(=O)O)c3c2)CC1 (centres unmarked) [Compound 140]
20 to 100,"C (“C” = 2-7° C,)",,D (“D” > 15° C.),< 5,CC1(C)CCCC(Nc2ccc3c(=O)c4ccc(Cl)c(Cl)c4n(CC(=O)O)c3c2)C1 (centres unmarked) [Compound 139]
20 to 100,"C (“C” = 2-7° C,)",,D (“D” > 15° C.),< 5,CC1(C)CCC=C(c2ccc3c(=O)c4ccc(Cl)c(Cl)c4n(CC(=O)O)c3c2)C1 [Compound 157]
< 20,D (“D” > 7° C.),< 20,,> 50,CSc1c(Cl)ccc2c(=O)c3ccc(Nc4ncccn4)cc3n(CC(=O)O)c12 [Compound 276]
20 to 100,D (“D” > 7° C.),< 20,,> 50,COc1c(Cl)ccc2c(=O)c3ccc(-c4cccc(N)c4)cc3n(CC(=O)O)c12 [Compound 275]
< 20,D (“D” > 7° C.),< 20,,> 50,CSc1c(Cl)ccc2c(=O)c3ccc(C(C)C)cc3n(CC(=O)O)c12 [Compound 281]
20 to 100,D (“D” > 7° C.),20 to 100,,25 to 50,Cc1ccc2c(=O)c3ccc(Cl)c(OCc4ccccc4)c3n(CC(=O)O)c2c1 [Compound 285]
20 to 100,"C (“C” = 2-7° C,)",100 to 300,,> 50,COc1c(Cl)ccc2c(=O)c3cc(Br)c(C(C)C)cc3n(CC(=O)O)c12 [Compound 268]
